Patent US20240207454A1, “NEURO-BEHAVIORAL ASSAY FOR PHYSIOLOGICAL EVALUATION OF WATER-SOLUBLE ANESTHETICS” (Northeastern University, priority 2022, published 2024)
Read-outs that look alike come from different tables or passages of the source.

How the values were obtained:
[1] = tested on: Apteronotus leptorhynchus; assay: Neuro-behavioral assay: chirps (EOD modulations); assay type: in vivo; settings: 1 μM to 60 μM, exposure times of up to 48 hours; negative control
[2] = tested on: Apteronotus leptorhynchus; assay: Neuro-behavioral assay: effect on EOD frequency; assay type: in vivo; settings: 1 μM to 60 μM, exposure times of up to 48 hours; negative control
[3] = tested on: Apteronotus leptorhynchus; assay: Neuro-behavioral assay: locomotor activity and induction of anesthesia; assay type: in vivo; settings: 1 μM to 60 μM, exposure times of up to 48 hours; negative control
Mauthner cell = settings: cited from earlier work

Structure (SMILES): NC12CC3CC(CC(C3)C1)C2 [Amantadine]
- Effect on EOD modulations [1]: no effects
- Effect on EOD frequency [2]: no effects
- Effect on locomotor activity [3]: no effects

Structure (SMILES): CC=Cc1ccc(O)c(OC)c1 [isoeugenol]
- Effect on generation and propagation of action potentials (Mauthner cell; 10 mg/L and 20 mg/L, exposure for more than 1 hour): No effect
- Effect on generation and propagation of action potentials (Mauthner cell; 40 mg/L, after 10-30 min): slight decrease in the slope of action potentials
- Effect on generation and propagation of action potentials (Mauthner cell; 60 mg/L, exposure for at least 10-30 min): additional aspects of the action potential were affected
